Legend:
THP-1 cells = assay: Measurement of IL-1β production, hTRF protocol (second alternative procedure), THP-1 cells; type: cell-based, human; settings: Homo sapiens, THP-1, IL-1β production, human; read-out: NLRP3 hILIB EC50
How it was run: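 THP-1 cells differentiated overnight with 50 ng/ml PMA, then plated at 50,000 cells/well in RPMI with 2% FBS onto serial compound dilutions (top final concentration 10 μM) for 2 hours at 37° C. Supernatant IL-1β measured by hTRF (antibodies at 1:40, overnight at 4° C), read at 665/615 nm against a standard curve.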

TLR7 = target: T1, TLR7 (Homo sapiens, UniProt Q9NYK1); assay: In vitro human TLR7 binding reporter assay (HEK-Blue, NF-kB/AP1-inducible SEAP); type: cell-based; settings: activity range class, read-out: TLR7 Agonist EC50
T1 construct: human HEK-Blue cells co-expressing a TLR7 or TLR8 gene
T1 sequence (Q9NYK1 27-1049): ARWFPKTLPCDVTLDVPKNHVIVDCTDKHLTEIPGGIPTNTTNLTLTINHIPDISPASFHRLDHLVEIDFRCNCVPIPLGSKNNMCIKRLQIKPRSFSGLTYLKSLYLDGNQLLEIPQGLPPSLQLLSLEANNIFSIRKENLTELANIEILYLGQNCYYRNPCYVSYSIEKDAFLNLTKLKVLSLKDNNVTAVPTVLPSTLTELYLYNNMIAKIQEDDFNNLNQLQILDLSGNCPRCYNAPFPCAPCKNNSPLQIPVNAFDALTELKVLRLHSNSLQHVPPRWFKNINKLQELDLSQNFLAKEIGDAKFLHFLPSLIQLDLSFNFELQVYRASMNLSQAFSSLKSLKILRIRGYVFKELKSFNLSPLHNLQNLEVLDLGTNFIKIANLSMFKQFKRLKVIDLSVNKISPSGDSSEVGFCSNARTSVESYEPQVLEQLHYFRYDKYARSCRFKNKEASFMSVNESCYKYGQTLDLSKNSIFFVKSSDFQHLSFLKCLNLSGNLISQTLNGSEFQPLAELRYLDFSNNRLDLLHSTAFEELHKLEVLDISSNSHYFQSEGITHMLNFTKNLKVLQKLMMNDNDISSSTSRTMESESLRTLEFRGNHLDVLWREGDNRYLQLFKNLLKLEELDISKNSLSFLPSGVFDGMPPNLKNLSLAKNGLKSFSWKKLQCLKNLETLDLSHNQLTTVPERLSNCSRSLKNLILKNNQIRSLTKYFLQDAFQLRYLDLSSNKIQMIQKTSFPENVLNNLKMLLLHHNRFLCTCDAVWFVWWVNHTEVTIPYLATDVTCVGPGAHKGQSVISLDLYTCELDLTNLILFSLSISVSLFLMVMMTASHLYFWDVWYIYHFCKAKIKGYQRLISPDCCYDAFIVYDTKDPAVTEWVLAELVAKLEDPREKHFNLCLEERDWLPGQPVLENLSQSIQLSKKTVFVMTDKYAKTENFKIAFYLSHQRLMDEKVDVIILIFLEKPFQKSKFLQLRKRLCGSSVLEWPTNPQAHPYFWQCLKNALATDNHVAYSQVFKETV
How it was run: (§1)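 Cells are seeded and grown for 24 h. Compounds or DMSO are then added and incubated 18 h at 37 °C. Quanti-Blue is added, and SEAP is read after thirty minutes. EC50 values are normalized, with RLU from 50 μM reference standard setting 100% Ymax.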

TLR8 = target: T2, TLR8 (Homo sapiens, UniProt Q9NR97); assay: In vitro human TLR8 binding reporter assay (HEK-Blue, NF-kB/AP1-inducible SEAP); type: cell-based; settings: activity range class, read-out: TLR8 Agonist EC50
T2 construct: human HEK-Blue cells co-expressing a TLR7 or TLR8 gene
T2 sequence (Q9NR97 27-1041): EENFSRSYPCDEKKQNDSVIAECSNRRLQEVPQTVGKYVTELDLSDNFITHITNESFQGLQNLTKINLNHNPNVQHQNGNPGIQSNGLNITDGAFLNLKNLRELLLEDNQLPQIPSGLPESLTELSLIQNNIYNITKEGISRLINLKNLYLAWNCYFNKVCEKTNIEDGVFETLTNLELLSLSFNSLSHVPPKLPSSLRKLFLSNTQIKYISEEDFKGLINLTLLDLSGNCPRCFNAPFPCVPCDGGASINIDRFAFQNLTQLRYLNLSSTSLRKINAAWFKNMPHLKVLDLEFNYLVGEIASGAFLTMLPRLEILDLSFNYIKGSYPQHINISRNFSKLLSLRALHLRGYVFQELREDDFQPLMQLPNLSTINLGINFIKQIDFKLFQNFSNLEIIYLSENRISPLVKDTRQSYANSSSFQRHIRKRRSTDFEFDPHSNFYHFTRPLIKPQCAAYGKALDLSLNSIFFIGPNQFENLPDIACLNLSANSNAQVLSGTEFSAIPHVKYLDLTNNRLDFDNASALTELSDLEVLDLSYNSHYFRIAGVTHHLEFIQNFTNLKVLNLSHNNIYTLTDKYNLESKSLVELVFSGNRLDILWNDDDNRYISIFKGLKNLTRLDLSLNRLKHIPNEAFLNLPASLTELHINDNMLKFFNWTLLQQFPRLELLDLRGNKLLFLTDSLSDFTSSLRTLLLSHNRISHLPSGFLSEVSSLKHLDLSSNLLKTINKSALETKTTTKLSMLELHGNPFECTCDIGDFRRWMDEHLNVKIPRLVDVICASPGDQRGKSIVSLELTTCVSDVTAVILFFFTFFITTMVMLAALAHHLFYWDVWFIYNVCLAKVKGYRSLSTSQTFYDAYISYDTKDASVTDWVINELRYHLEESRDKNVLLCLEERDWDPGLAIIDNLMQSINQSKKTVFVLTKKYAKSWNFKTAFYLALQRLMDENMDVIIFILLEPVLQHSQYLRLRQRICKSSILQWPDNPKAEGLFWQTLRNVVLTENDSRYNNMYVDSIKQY
How it was run: as §1

EC50 (THP-1 cells) [µM]	EC50 (TLR7) [µM]	EC50 (TLR8) [µM]	SMILES
1.38	20 to 100	> 100	Nc1nc2cc(-c3cc[nH]n3)ccc2c2cn(CCNC(=O)c3ccccc3)nc12 [Example 36]
0.95	> 100	> 100	Nc1nc2cc(-c3cc[nH]n3)ccc2c2cn(CCNC(=O)c3ccncc3)nc12 [Example 37]
4.93	> 100	> 100	Nc1nc2cc(-c3cc[nH]n3)ccc2c2cn(CCNC(=O)c3cccnc3)nc12 [Example 38]
0.25	> 100	20 to 100	Nc1nc2cc(-c3cc[nH]n3)ccc2c2cn(CCNC(=O)c3ccccn3)nc12 [Example 39]
0.78	> 100	> 100	COc1ccc(C(=O)NCCn2cc3c(n2)c(N)nc2cc(-c4cc[nH]n4)ccc23)cc1 [Example 40]
0.8	> 100	> 100	Cc1ccc(C(=O)NCCn2cc3c(n2)c(N)nc2cc(-c4cc[nH]n4)ccc23)cc1 [Example 41]
0.67	> 100	> 100	Nc1nc2cc(-c3cc[nH]n3)ccc2c2cn(CCNC(=O)c3ccc(F)cc3)nc12 [Example 42]
0.46	> 100	> 100	Cc1nc(C(=O)NCCn2cc3c(n2)c(N)nc2cc(-c4cc[nH]n4)ccc23)cs1 [Example 43]
0.63	> 100	> 100	Nc1nc2cc(-c3cc[nH]n3)ccc2c2cn(CCNC(=O)c3cocn3)nc12 [Example 44]
1.41	> 100	> 100	Cc1cc(C(=O)NCCn2cc3c(n2)c(N)nc2cc(-c4cc[nH]n4)ccc23)nn1C [Example 45]
4.19	> 100	> 100	Cc1nc(C)c(C(=O)NCCn2cc3c(n2)c(N)nc2cc(-c4cc[nH]n4)ccc23)o1 [Example 46]
23.3	> 100	> 100	Nc1nc2cc(-c3cc[nH]n3)ccc2c2cn(CCNC(=O)C3CCOCC3)nc12 [Example 47]
5.2	> 100	> 100	CCC(=O)NCCn1cc2c(n1)c(N)nc1cc(-c3cc[nH]n3)ccc12 [Example 48]
0.61	> 100	20 to 100	Cc1cccc(C(=O)NCCn2cc3c(n2)c(N)nc2cc(-c4cc[nH]n4)ccc23)n1 [Example 49]
1.43	> 100	> 100	Cc1nccc(C(=O)NCCn2cc3c(n2)c(N)nc2cc(-c4cc[nH]n4)ccc23)n1 [Example 50]
18.8	> 100	> 100	COc1ccc(C(=O)NCCn2cc3c(n2)c(N)nc2cc(-c4cc[nH]n4)ccc23)nn1 [Example 51]
0.62	> 100	> 100	Cc1cnc(C(=O)NCCn2cc3c(n2)c(N)nc2cc(-c4cc[nH]n4)ccc23)cn1 [Example 52]
0.45	> 100	> 100	Nc1nc2cc(-c3cc[nH]n3)ccc2c2cn(CCNC(=O)c3ncccc3F)nc12 [Example 53]

EC50 (THP-1 cells) [µM]	EC50 (TLR7) [µM]	EC50 (TLR8) [µM]	SMILES
0.19	20 to 100	> 100	Nc1nc2cc(-c3cc[nH]n3)ccc2c2cn(CCNC(=O)c3cc(F)ccn3)nc12 [Example 54]
0.39	20 to 100	20 to 100	Nc1nc2cc(-c3cc[nH]n3)ccc2c2cn(CCNC(=O)c3cccc(F)n3)nc12 [Example 55]
0.31	20 to 100	1 to 20	Cc1nc(C(=O)NCCn2cc3c(n2)c(N)nc2cc(-c4cc[nH]n4)ccc23)ccc1C(F)(F)F [Example 56]
2.21	> 100	> 100	Nc1nc2cc(-c3cc[nH]n3)ccc2c2cn(CCNC(=O)c3cc(CO)ccn3)nc12 [Example 57]
0.3	> 100	1 to 20	Nc1nc2cc(-c3cc[nH]n3)ccc2c2cn(CCNC(=O)c3ccc(OCc4ccccc4)cn3)nc12 [Example 58]
0.47	> 100	> 100	COc1ccc(C(=O)NCCn2cc3c(n2)c(N)nc2cc(-c4cc[nH]n4)ccc23)nc1 [Example 59]
0.27	> 100	> 100	Nc1nc2cc(-c3cc[nH]n3)ccc2c2cn(CCNC(=O)c3cccc(Cl)n3)nc12 [Example 60]
0.12	20 to 100	> 100	Nc1nc2cc(-c3cc[nH]n3)ccc2c2cn(CCNC(=O)c3cc(Cl)ccn3)nc12 [Example 61]
0.28	20 to 100	> 100	Nc1nc2cc(-c3cc[nH]n3)ccc2c2cn(CCNC(=O)c3ccc(C(F)(F)F)cn3)nc12 [Example 62]
1.61	> 100	> 100	COC(=O)c1cccc(C(=O)NCCn2cc3c(n2)c(N)nc2cc(-c4cc[nH]n4)ccc23)n1 [Example 63]
0.48	> 100	> 100	N#Cc1ccc(C(=O)NCCn2cc3c(n2)c(N)nc2cc(-c4cc[nH]n4)ccc23)nc1 [Example 64]
0.35	> 100	20 to 100	COc1cccc(C(=O)NCCn2cc3c(n2)c(N)nc2cc(-c4cc[nH]n4)ccc23)n1 [Example 65]
0.8	> 100	> 100	Nc1nc2cc(-c3cc[nH]n3)ccc2c2cn(CCNC(=O)c3ncc(F)cc3F)nc12 [Example 66]
0.38	> 100	> 100	Nc1nc2cc(-c3cc[nH]n3)ccc2c2cn(CCNC(=O)c3ccc(OC(F)(F)F)cn3)nc12 [Example 67]
0.37	> 100	20 to 100	Cc1nc(C(=O)NCCn2cc3c(n2)c(N)nc2cc(-c4cc[nH]n4)ccc23)c(C)o1 [Example 68]
0.7	> 100	> 100	Nc1nc2cc(-c3cc[nH]n3)ccc2c2cn(CCNC(=O)c3ccon3)nc12 [Example 69]
1.83	> 100	> 100	Nc1nc2cc(-c3cc[nH]n3)ccc2c2cn(CCNC(=O)c3ncccn3)nc12 [Example 70]
0.81	20 to 100	20 to 100	Cc1nc(C(=O)NCCn2cc3c(n2)c(N)nc2cc(-c4cc[nH]n4)ccc23)c(C(F)(F)F)o1 [Example 71]
